Measured values published in patent US9453006B2, “Crystalline form having specific crystal habit and pharmaceutical composition containing this crystalline form as active ingredient” (POLA PHARMA INC., priority 2013, dated 2016).

Experiments:
Trichomonas = assay: Anti-Trichomonas effect, number of survived protozoa after 72 hours culture at 37° C. (Example 4); type: cell-based; conditions: for Number of survived protozoa: cultured 72 hours at 37° C.
Procedure: Each of Crystal 1 and Crystal 2 was correctly weighed in an amount of 3.45 mg, which was dissolved in 10 mL of ethanol, in the same manner as in Example 3. After confirming the absence of the crystal by visual observation, 100 μL of the solution was used as an aliquot, and 900 μL of physiological saline was added thereto. The resultant solution was subjected to the sterilizing filtration by using a filter having a pore size of […] a sample or specimen. 0.5 mL of each of the specimens was added to “Trichomonas medium F” (produced by Fuji Pharma Co., Ltd.). Further, 100 μL of Trichomonas culture, which had been precultured and prepared to give 2.7×10^5 individuals/mL by adding the medium, was added, followed by being cultured for 72 hours at 37° C. (final concentration: 2.4 μg/mL). After completing the cultivation, the number of survived individuals of Trichomonas was counted by using a hemocytometer.

[1] = test system: Trichomonas vaginalis (clinically isolated strain); assay: Effect on Trichomonas vaginalis, number of survived individuals after 96 hours culture (Example 3); type: cell-based; conditions: for Number of survived individuals of Trichomonas: after 0.22 μm sterilizing filtration, cultured 96 hours
From the text: The effect on Trichomonas vaginalis (clinically isolated strain) of the crystal was investigated while being compared with a crystal having such a crystal habit that the (11-1) plane was the specific crystal growth plane. A solution of 10% ethanol/physiological saline was used as a control.
Crystal of Comparative Example described above was used as the crystal which had such a crystal habit that the (11-1) plane was the specific crystal growth plane. Crystal 2 was used as the crystal which had such a crystal habit that the (011) plane was the specific crystal growth plane.
Each of the crystals of luliconazole was weighed in an amount of 7.02 mg to which 10 mL of ethanol was added to dissolve the crystal. After confirming the absence of the crystal by visual observation, 100 μL of the solution was used as an aliquot, and 900 μL of physiological saline was added thereto. The resultant solution was subjected to the sterilizing filtration by using a filter having a pore size of 0.22 μm to provide a sample of 5.02 μg/mL (final concentration). 250 μL of an aliquot was taken therefrom, to which 250 μL of 10% ethanol/physiological saline was added to provide a sample of 2.51 μg/mL (final concentration).
0.5 mL of each of the samples was added to “Trichomonas medium F” (produced by Fuji Pharma Co., Ltd.), and 100 μL of Trichomonas culture (5×10^3 individuals of Trichomonas) was added thereto, followed by being cultured for 96 hours. After performing cooling for 10 minutes in ice water, the medium was stirred, which was spread on a hemocytometer to count a number of survived individuals of Trichomonas. As for a control, 0.5 mL of 10% ethanol/physiological saline was added in place of the sample. […] Further, according to the fact that the peak area ratio of the (011) plane was 26%, it is possible to estimate and acknowledge that the effect as described above is provided if I(011) with respect to the sum total of I(001), I(100), I(10-1), I(011), I(110), I(11-1), I(10-2), I(11-2), I(020), I(021), I(20-2), I(121), I(013), I(11-3), and I(221) is not less than 25%, provided that integrated intensities of diffraction peaks, which correspond to the (001), (100), (10-1), (011), (110), (11-1), (10-2), (11-2), (020), (021), (20-2), (121), (013), (11-3), and (221) planes, are designated as I(001), I(100), I(10-1), I(011), I(110), I(11-1), I(10-2), I(11-2), I(020), I(021), I(20-2), I(121), I(013), I(11-3), and I(221) respectively in relation to the diffraction peaks detected in a range of 2θ=5 to 35° in a powder X-ray diffraction pattern in which CuKα is used as an X-ray source.

[2] = sample 2.51 μg/mL (final concentration)
[3] = sample 5.02 μg/mL (final concentration)

Compound	anti-Trichomonas effect (Trichomonas; Crystal 1 compared with Crystal 2)	Number of survived protozoa (Trichomonas; final concentration 2.4 μg/mL)	Number of survived protozoa (Trichomonas; final concentration 4.8 μg/mL)	Number of survived protozoa (Trichomonas; final concentration 9.6 μg/mL)	Number of survived individuals of Trichomonas [1, 2] [individuals/mL]	Number of survived individuals of Trichomonas [1, 3] [individuals/mL]	suppression of the growth of Trichomonas in the vicinity of MIC ([1]; compared with the crystal having the (11-1) plane as specific crystal growth plane)
N#C/C(=C1/SC[C@@H](c2ccc(Cl)cc2Cl)S1)n1ccnc1 [Crystal 1, luliconazole]	more excellent than that of Crystal 2	5.57 ± 0.42 100000 individuals/mL	0 100000 individuals/mL	0 100000 individuals/mL	–	–	–
N#C/C(=C1/SC[C@@H](c2ccc(Cl)cc2Cl)S1)n1ccnc1 [Crystal of Comp. Ex., luliconazole, reference compound]	–	–	–	–	116667 ± 15275	23333 ± 5773	–
N#C/C(=C1/SC[C@@H](c2ccc(Cl)cc2Cl)S1)n1ccnc1 [Crystal 2, luliconazole]	–	6.57 ± 0.60 100000 individuals/mL	0 100000 individuals/mL	0 100000 individuals/mL	23333 ± 5773	23333 ± 5773	significantly excellent
